From ChEMBL document CHEMBL5241120, “Insights into the medicinal chemistry of heterocycles integrated with a pyrazolo[1,5-a]pyrimidine scaffold” (RSC Med Chem, 2022)
pIC50: −log10 of the molar value. ≈ marks a conversion by molar mass, not a printed value. Blank lines part the entries; values can stand above or below the compound they belong to.

Tests used:
[1] = test system: Rattus norvegicus; assay: Analgesic activity in Sprague-Dawley rat at 15 mg/kg after 2 hrs by hot plate test; assay type: functional
[2] = molecular target: T1, Prostaglandin G/H synthase 1 (Ovis aries, UniProt P05979); assay: Inhibition of ovine COX-1
T1 sequence (P05979 whole entry): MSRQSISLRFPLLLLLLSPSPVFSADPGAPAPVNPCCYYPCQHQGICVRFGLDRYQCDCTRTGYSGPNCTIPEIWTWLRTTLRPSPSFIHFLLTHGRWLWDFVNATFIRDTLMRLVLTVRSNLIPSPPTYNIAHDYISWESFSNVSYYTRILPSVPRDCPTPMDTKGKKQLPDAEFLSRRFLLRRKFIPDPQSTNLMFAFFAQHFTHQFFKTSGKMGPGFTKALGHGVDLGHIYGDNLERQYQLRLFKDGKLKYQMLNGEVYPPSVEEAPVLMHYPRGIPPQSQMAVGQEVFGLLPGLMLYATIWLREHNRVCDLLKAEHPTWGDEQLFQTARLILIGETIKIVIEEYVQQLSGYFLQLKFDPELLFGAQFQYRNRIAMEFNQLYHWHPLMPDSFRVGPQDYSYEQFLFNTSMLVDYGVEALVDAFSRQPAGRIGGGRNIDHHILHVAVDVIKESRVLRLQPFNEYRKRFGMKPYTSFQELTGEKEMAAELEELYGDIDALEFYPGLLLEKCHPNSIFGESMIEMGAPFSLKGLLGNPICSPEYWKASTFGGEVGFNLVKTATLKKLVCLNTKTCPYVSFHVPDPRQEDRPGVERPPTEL

[3] = Inhibition of soybean 15-LOX; set-up: species or system Glycine max
[4] = test system: Rattus norvegicus; assay: Antiinflammatory activity in rat assessed as inhibition of carrageenan induced paw edema at 50 mg/kg; assay type: functional; set-up: scale not given: the % may be the effect or the level left
[5] = test system: Bacillus subtilis; assay: Antibacterial activity against Bacillus subtilis; assay type: functional
[6] = test system: Staphylococcus aureus; assay: Antibacterial activity against Staphylococcus aureus; assay type: functional
[7] = test system: Escherichia coli; assay: Antibacterial activity against Escherichia coli; assay type: functional
[8] = test system: Pseudomonas aeruginosa; assay: Antibacterial activity against Pseudomonas aeruginosa; assay type: functional
[9] = test system: Bacillus subtilis; assay: Antibacterial activity against Bacillus subtilis assessed as zone of inhibition; assay type: functional
[10] = test system: CHO-K1; assay: Cytotoxicity against CHO-K1 cells by MTT assay; assay type: toxicity, cell-based, Cricetulus griseus; set-up: concentration or dose not given beside the values; settings: chinese hamster
[11] = test system: Pseudomonas aeruginosa; assay: Antibacterial activity against Pseudomonas aeruginosa assessed as zone of inhibition; assay type: functional
[12] = test system: HepG2; assay: Cytotoxicity against human HepG2 cells by MTT assay; assay type: functional, cell-based
[13] = test system: MCF7; assay: Cytotoxicity against human MCF7 cells by MTT assay; assay type: functional, cell-based
[14] = test system: MCF7; assay: Cytotoxicity against human MCF7 cells by SRB assay; assay type: functional, cell-based
[15] = test system: Salmonella enterica; assay: Antibacterial activity against Salmonella enterica assessed as zone of inhibition; assay type: functional
[16] = test system: Escherichia coli; assay: Antibacterial activity against Escherichia coli assessed as zone of inhibition; assay type: functional
[17] = test system: HCT-116; assay: Cytotoxicity against human HCT-116 cells by MTT assay; assay type: functional, cell-based
[18] = test system: Aspergillus niger; assay: Antifungal activity against Aspergillus niger by dry weight method; assay type: functional
[19] = test system: Fusarium verticillioides; assay: Antifungal activity against Fusarium moniliforme by dry weight method; assay type: functional
[20] = test system: Aspergillus flavus; assay: Antifungal activity against Aspergillus flavus by dry weight method; assay type: functional; set-up: unit not given beside the values
[21] = test system: Aspergillus niger; assay: Antifungal activity against Aspergillus niger assessed as zone of inhibition; assay type: functional
[22] = test system: Candida albicans; assay: Antifungal activity against Candida albicans assessed as zone of inhibition; assay type: functional

SMILES: O=C(O)Cc1ccccc1Nc1c(Cl)cccc1Cl [DICLOFENAC]
Activity [1]: 84%

pIC50 [2]: 5.04
pIC50 [3]: 4.85
SMILES: COc1ccnc(Nc2n[nH]c(N)c2C#N)c1

pIC50 [2]: 5.10
pIC50 [3]: 5.08
SMILES: CCOc1cc(C)nc2c(C#N)c(Nc3cc(OC)ccn3)nn12
Activity [4]: 46%

MIC [5]: 3.9 µg/mL (≈ 11.4 µM)
MIC [6]: 7.81 µg/mL (≈ 22.7 µM)
MIC [7]: 15.6 µg/mL (≈ 45.5 µM)
MIC [8]: 7.81 µg/mL (≈ 22.7 µM)
SMILES: Cc1ccc(-c2ccnc3c(C(N)=O)c(Nc4ccccc4)nn23)cc1
inhibition zone (IZ) [9]: 9 mm

SMILES: Cc1c(NC(=O)c2cnn3c(N)c(-c4ccccc4)cnc23)c(=O)n(-c2ccccc2)n1C
Activity [10]: 45.75%

SMILES: COc1ccc(-c2ccnc3c(C(N)=O)c(Nc4ccccc4)nn23)cc1
inhibition zone (IZ) [11]: 9 mm
pIC50 [12]: 4.10
pIC50 [13]: 4.20
pIC50 [14]: 4.20

SMILES: CCOP(=O)(OCC)C1C(C(=O)c2ccccc2O)=CN=C2CC(O)=NN21 (stereo not given)
IC50 [14]: 21.9 µg/mL

SMILES: O=C(Nc1ccccc1)c1cnn2c(-c3ccncc3)ccnc12
inhibition zone (IZ) [15]: 23 mm
inhibition zone (IZ) [16]: 12 mm

SMILES: CC1=CC(c2ccccc2)n2nc(-c3ccccc3)cc2N1 (stereo not given)
IC50 [17]: 1.89 µg/mL (≈ 6.58 µM)
IC50 [12]: 0.64 µg/mL
IC50 [13]: 2.79 µg/mL

SMILES: CC/C(=C(\c1ccccc1)c1ccc(OCCN(C)C)cc1)c1ccccc1 [TAMOXIFEN]
IC50 [14]: 8.5 µg/mL

SMILES: Cc1ccc(N/N=C2\C(=O)n3nc(C)cc3N=C2C(F)(F)F)cc1
Activity [1]: 121.1%

pIC50 [2]: 5.07
pIC50 [3]: 5.09
SMILES: CCOc1cc(N)n2nc(Nc3cc(OC)ccn3)c(C#N)c2n1
Activity [4]: 46%

SMILES: CSc1nn2c(C)cc(C)nc2c1-c1nc2ccccc2n1C
Activity [18]: 0.27
Activity [19]: 0.11
Activity [20]: 0.3
inhibition zone (IZ) [16]: 9 mm

SMILES: COc1ccc(Nc2nn3c(N)c(C#N)c(-c4cccc(C)c4)nc3c2C(=O)Nc2ccc(Cl)cc2)cc1
inhibition zone (IZ) [21]: 15 mm

SMILES: Cc1cc(-n2ncc(C#N)c2N)n2ncc(C#N)c2n1
inhibition zone (IZ) [22]: 17.1 mm
inhibition zone (IZ) [9]: 16.1 mm
inhibition zone (IZ) [16]: 14.2 mm

SMILES: Cc1ccc(-c2nc3c(/N=N/c4cccc(C(F)(F)F)c4)c(N)nn3c(N)c2C#N)cc1
IC50 [17]: 1.89 µg/mL (≈ 4.33 µM)
IC50 [12]: 0.64 µg/mL
IC50 [13]: 2.79 µg/mL

SMILES: CC1=CC(c2ccccc2)n2nc(-c3ccc(C)cc3)cc2N1 (stereo not given)
IC50 [17]: 22.5 µg/mL (≈ 74.7 µM)
IC50 [12]: 10.3 µg/mL
IC50 [13]: 23.8 µg/mL

SMILES: COC1=CC(=O)C[C@@H](C)[C@]12Oc1c(Cl)c(OC)cc(OC)c1C2=O [GRISEOFULVIN]
inhibition zone (IZ) [22]: 16.8 mm

SMILES: CSc1nn2c(-c3ccccc3)c(C#N)c(=O)[nH]c2c1-c1nc2ccccc2n1C
Activity [18]: 0.43
Activity [19]: 0.16
Activity [20]: 0.33

SMILES: CSc1nn2c(-c3cccs3)c(C#N)c(N)nc2c1-c1nc2ccccc2n1C
Activity [18]: 0.56
Activity [19]: 0.28
Activity [20]: 0.38

SMILES: COc1ccc(Nc2nn3c(N)c(C#N)c(-c4ccc(C)cc4)nc3c2C(=O)Nc2ccc(Cl)cc2)cc1
inhibition zone (IZ) [22]: 18 mm
inhibition zone (IZ) [21]: 15 mm

SMILES: Cc1ccc(-c2nc3c(/N=N/c4cccc(C(F)(F)F)c4)c(N)nn3c(O)c2C#N)cc1
IC50 [17]: 12 µg/mL (≈ 27.4 µM)
IC50 [12]: 8.47 µg/mL
IC50 [13]: 11.2 µg/mL

SMILES: COc1ccc(Nc2nn3c(N)c(C#N)c(-c4cc(OC)ccc4OC)nc3c2C(=O)Nc2ccccc2)cc1
inhibition zone (IZ) [9]: 20 mm
inhibition zone (IZ) [21]: 15 mm
inhibition zone (IZ) [16]: 16 mm

MIC [5]: 3.9 µg/mL (≈ 10.9 µM)
MIC [6]: 7.81 µg/mL (≈ 21.7 µM)
MIC [7]: 15.6 µg/mL (≈ 43.5 µM)
MIC [8]: 7.81 µg/mL (≈ 21.7 µM)
SMILES: COc1ccc(Nc2nn3c(-c4ccccc4)ccnc3c2C(N)=O)cc1
